System: α-SMA expression induced by TGFβ1 in dermal fibroblasts
Test: Fibrosis inhibition evaluation 2: immunofluorescent staining of α-SMA in dermal fibroblasts
Assay type: cell-based, mice
Conditions: 10 μM, TGFβ1 10 ng/ml, 48 hours, FIG. 7
Experimental: In the same manner as in Test Example 5, dermal fibroblasts were isolated from mice, and sterilized cover glass (diameter: 12 mm) was placed in a 12-well plate. On the cover glass, 2.5×10^5 cells were seeded and grown. After 24 hours, the medium was replaced with a medium free of fetal bovine serum, and the cells were cultured for another 24 hours. Separately, cardiac fibroblasts were isolated from 1 to 2-day-old rats and treated in the same manner as for the dermal fibroblasts. Thereafter, 10 ng/ml TGFβ1 was added to the dermal fibroblasts, and 2 ng/ml TGFβ2 was added to the cardiac fibroblasts, followed by culturing the cells for 48 hours. At the same time as TGFβ was added, 10 μM of a test compound (compound 011), 10 μM of Pyr 2 (conventional inhibitor), or DMSO (solvent control) was also added. Separately, cultured cells to which TGFβ-free phosphate buffered saline (PBS) was added were also prepared. […] After blocking with 1% bovine serum albumin, α-SMA was detected using anti-α-SMA antibody (Sigma) as the primary antibody and anti-mouse IgG antibody (Molecular Probes) fused with Alexa 488 as the secondary antibody, and an image was acquired using a fluorescence microscope (Keyence) with a 20× objective lens. The average fluorescence brightness (fluorescence intensity/pixel) per cell area was calculated and analyzed using Image J software.

O=C(O)c1cnc(N2CCN(c3noc4cccc(C(F)(F)F)c34)CC2)c(Cl)c1 [Compound 011, 5-chloro-6-(4-(4-(trifluoromethyl)benzo[d]isoxazol-3-yl)piperazin-1-yl) nicotinic acid]
expression of α-SMA induced by TGFβ (immunofluorescent staining): almost completely suppressed the expression of α-SMA

Source: US11976062B2, “Benzisoxazole compound” (OSAKA UNIVERSITY, priority 2018, dated 2024)
